What was measured:
[1] = test system: fetal lung fibroblast-like nononcogenic control cell line (WI-38); test: 96 h SRB growth inhibition assay, WI-38; format: cell-based, human
Method: Compounds were screened with a 96 h SRB (sulforhodamine B) assay for their antiproliferative activity in a panel of human cancer cell lines comprising lung adenocarcinoma (A549), breast adenocarcinoma (MCF7), and PDAC (MIA PaCa-2 and PANC-1) cell lines, as well as a fetal lung fibroblast-like nononcogenic control cell line (WI-38) (Figure 1f). […] Gemcitabine is also active in these lines at low nanomolar levels, although less so in MIA PaCa-2 (IC50 19 ± 5 nM) and more so in BX-PC3 cells (6 ± 2 nM).
All cell lines were purchased from ATCC and maintained in appropriate medium supplemented with 10% fetal bovine serum (Invitrogen, UK), 2 mM L-glutamine (Invitrogen, Netherlands), and other components as specified by the suppliers. Cell lines were maintained at 37 °C, 5% CO2, and routinely passaged. Drugs were dissolved in H2O and filtered through 0.22 μm pore-size filter units (stock 10 mM) before addition to appropriate cell line media. Cellular growth inhibition was measured using the sulforhodamine B (SRB) assay in 96-well plates as described previously.[78] The 50% inhibitory concentrations (IC50) were determined by taking the mean absorbance at 540 nm for each drug concentration expressed as a percentage of the absorbance of untreated control wells.

[2] = test system: PANC-1 and MIA PaCa-2 cells; test: RNA-seq gene expression, genes common to PANC-1 and MIA PaCa-2; format: cell-based, human
Excerpt: CM03 is a potent G4 ligand, as shown by the FRET and quantitative binding experiments reported here. We therefore reasoned that the potent CM03 antiproliferative activity on PDAC cells could be mediated through a G4-targeting mechanism. To test this hypothesis, we determined whether transcriptome changes upon early CM03 treatment were correlated with G4 presence in promoters and/or gene bodies. […] The time and dose of CM03 treatment were selected to reveal initial but robust mRNA changes while minimizing chronic effects due to cell toxicity. In both cell lines, the number of genes with altered expression (as defined by >0.5 increase in Log 2 of fold change [Log2 FC], or < −0.5 decrease; false discovery rate [FDR] < 0.1) increased with duration of CM03 treatment. In PANC-1 cells 2165 genes at 6 h and 3977 genes at 24 h were seen to change, while in MIA PaCa-2 cells, 5306 genes changed at 6 h and 5477 genes at 24 h compared to untreated controls (Supporting Information, Table 1). […] To validate that the targeting of G4-containing genes is not a general feature of antiproliferative agents, we also examined the effects of the first-line therapeutic agent for PDAC, gemcitabine,[37] a potent antiproliferative DNA synthesis inhibitor whose mechanism of action is G4-independent and which remains a standard therapy option in advanced PDAC. Both cell lines were treated with a range of gemcitabine concentrations (Supporting Information, Figure 4, Table 4) for 6 or 24 h.
The PDAC cell lines PANC-1 (ATCC, catalogue no. CRL-1469) and MIA PaCa-2 (ATCC, catalogue no. CRL-142) were maintained in DMEM (ThermoFisher, catalogue no. 11965092) supplemented with 10% (v/v) heat inactivated FBS (ThermoFisher) in a humidified atmosphere containing 5% CO2 at 37 °C. Cell lines were confirmed mycoplasma free by RNA-capture ELISA, and their genotypes were certified by STR profiling.
PANC-1 (0.35 × 10^6 cells/well) and MIA PaCa-2 (1.5 × 10^6 cells/well) cell lines were seeded overnight in 60 mm plates. Next day, cells were treated with 400 nM CM03 for 6 and 24 h. For gemcitabine treatment, cells were treated for 6 and 24 h with DMSO or 30 nM, 100 nM, 300 nM, 1 μM, 3 μM, and 10 μM gemcitabine-HCL for PANC-1 cells and 30 nM, 300 nM, and 3 μM gemcitabine-HCl for MIA PaCa-2 cells. Total RNA was extracted using the Qiagen RNeasy Plus Mini Kit (ThermoFisher, catalogue no. 74134) as per the manufacturer’s instructions. RNA quality (RIN > 9.0) was checked with an Aligent 2100 bioanalyzer RNA 6000 Nano Chip, and RNA concentration was quantified using a Qubit fluorometer (ThermoFisher) and Qubit RNA HS Assay Kit (Qiagen, catalogue no. Q32852). RNA-seq libraries were then generated using the Illumina Truseq RNA HT (stranded mRNA) kit (Illumina, catalogue no. RS-122–2103) as per the manufacturer’s instructions and sequenced using an Illumina HiSeq4000.
Fastq raw sequencing files were preprocessed using cutadapt[81] to remove sequencing adapters and low quality sequencing tails (options −q 10) and then aligned to the human genome (GRCh37/hg19) using tophat2[82] and using the UCSC gtf file provided by Illumina iGenomes as an annotation file (http://support.illumina.com/sequencing/sequencing_software/igenome.html). Gene counts were calculated using htseq-count[83] and the same gtf file. Differential expression analysis was done using the R package edgeR.[84] Differentially expressed genes were estimated independently for both cell lines (MIA PaCa-2 and PANC-1) and for the different time points (6 and 24 h) and were then intersected to inspect the common genes. The sequencing data is available at the GEO public functional genomics data repository (https://www.ncbi.nlm.nih.gov/geo/) as GSE105083. Details of the putative G4 sequence (PQs) analysis are given in the Supporting Information.

hERG = hERG (Homo sapiens, UniProt Q12809); test: hERG liability (unpublished data)
[3] = RNA-seq, 400 nM CM03, 6 h, both cell lines combined
[4] = RNA-seq, 400 nM CM03, 24 h, both cell lines combined

Sequence of hERG (Q12809 whole entry): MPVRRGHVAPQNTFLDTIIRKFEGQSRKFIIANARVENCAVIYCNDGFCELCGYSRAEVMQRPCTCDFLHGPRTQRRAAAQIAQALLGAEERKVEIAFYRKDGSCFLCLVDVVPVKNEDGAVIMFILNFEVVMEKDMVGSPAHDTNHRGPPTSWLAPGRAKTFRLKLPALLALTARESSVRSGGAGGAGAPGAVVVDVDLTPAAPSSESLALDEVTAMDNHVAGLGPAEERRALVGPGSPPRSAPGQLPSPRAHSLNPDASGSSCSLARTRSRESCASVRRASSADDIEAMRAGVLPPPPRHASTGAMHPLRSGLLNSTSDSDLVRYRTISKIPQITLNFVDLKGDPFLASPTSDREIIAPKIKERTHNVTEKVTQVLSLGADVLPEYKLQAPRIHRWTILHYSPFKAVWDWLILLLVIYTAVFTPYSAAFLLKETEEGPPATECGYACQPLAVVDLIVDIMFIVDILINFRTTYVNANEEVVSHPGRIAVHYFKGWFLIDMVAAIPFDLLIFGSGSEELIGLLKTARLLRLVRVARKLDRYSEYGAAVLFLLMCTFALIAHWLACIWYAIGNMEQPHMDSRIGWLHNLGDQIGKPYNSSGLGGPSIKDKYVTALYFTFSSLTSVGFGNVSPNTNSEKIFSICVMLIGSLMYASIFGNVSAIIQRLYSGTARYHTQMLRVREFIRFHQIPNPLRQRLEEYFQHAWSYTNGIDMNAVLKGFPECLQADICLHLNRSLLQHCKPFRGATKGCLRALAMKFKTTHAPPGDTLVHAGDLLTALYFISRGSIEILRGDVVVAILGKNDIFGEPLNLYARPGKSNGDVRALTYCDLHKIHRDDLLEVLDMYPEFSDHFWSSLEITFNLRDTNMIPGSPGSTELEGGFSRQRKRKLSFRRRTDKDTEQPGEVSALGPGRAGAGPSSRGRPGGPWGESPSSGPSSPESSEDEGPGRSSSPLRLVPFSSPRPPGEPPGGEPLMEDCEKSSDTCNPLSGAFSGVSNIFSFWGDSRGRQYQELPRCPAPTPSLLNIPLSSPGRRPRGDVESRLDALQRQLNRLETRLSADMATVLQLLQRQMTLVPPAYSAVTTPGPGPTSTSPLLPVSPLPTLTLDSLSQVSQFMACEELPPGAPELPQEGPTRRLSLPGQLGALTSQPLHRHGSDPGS

O=C1c2ccc3c4c(c(NCCN5CCCC5)cc(c24)C(=O)N1CCCN1CCOCC1)C(=O)N(CCCN1CCOCC1)C3=O [CM03, 2,7-bis(3-morpholinopropyl)-4-((2-(pyrrolidin-1-yl)ethyl)amino)benzo[lmn][3,8]phenanthroline-1,3,6,8(2H,7H)-tetraone]
less activity toward the WI-38 cell line (vs MM41) [1]: > 4 fold
genes changed in both cell lines ([2]; 400 nM CM03, 6 h): 1185
genes changed in both cell lines ([2]; 400 nM CM03, 24 h): 1917
KRAS mRNA expression ([2]; RNA-seq, 400 nM CM03, 6 and 24 h, either pancreatic cell line): unaffected
A1BG combined_logFC.6h.both [2, 3]: 0.1086
A2LD1 combined_logFC.6h.both [2, 3]: -0.2585
AAAS combined_logFC.6h.both [2, 3]: -0.007867
AACS combined_logFC.6h.both [2, 3]: 0.04302
A1BG combined_logFC.24h.both [2, 4]: -0.3316
A2LD1 combined_logFC.24h.both [2, 4]: -0.03116
A4GALT combined_logFC.24h.both [2, 4]: 0.4104
AACS combined_logFC.24h.both [2, 4]: -0.1174
hERG liabilities (hERG): neither MM41 nor CM03 show significant hERG liabilities

From article PMC5867665, “Targeting Multiple Effector Pathways in Pancreatic Ductal Adenocarcinoma with a G-Quadruplex-Binding Small Molecule” (Journal of Medicinal Chemistry, 2018)
